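A five-concentration, 48-hour dose response in 96-well plates underlies each endpoint, interpolated linearly between surrounding concentrations. The concentration for 50% growth inhibition is given as GI50.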 Active and inactive are the calls of the source. Rule as the data show it: active = GI50 up to about 1.1 µM and inactive = higher.
Key:
Experiment in all cases: growth of human tumour cells (NCI), 48 h
DMS-273 = tested on: DMS-273
XF498 = tested on: XF498
M19-MEL = tested on: M19-MEL
SNB-78 = tested on: SNB-78
LXFL 529 = tested on: LXFL 529
DMS-114 = tested on: DMS-114
KM-20L2 = tested on: KM-20L2
RXF 631 = tested on: RXF 631
HOP-18 = tested on: HOP-18

## CC/C=C1\N=C(c2ccc(Cl)cc2)OC1=O
DMS-273
  GI50: > 100 µM (inactive)
XF498
  GI50: > 100 µM (inactive)
M19-MEL
  GI50: > 100 µM (inactive)
SNB-78
  GI50: > 100 µM (inactive)
LXFL 529
  GI50: > 100 µM (inactive)
DMS-114
  GI50: > 100 µM (inactive)
KM-20L2
  GI50: > 100 µM (inactive)

## COc1ccc2c3c([nH]c2c1[N+](=O)[O-])C(C)N(Cc1ccccc1)CC3 (configuration not stated)
DMS-273
  GI50: 1.04 µM (active)
SNB-78
  GI50: 3.59 µM (inactive)
LXFL 529
  GI50: 5.07 µM (inactive)
DMS-114
  GI50: 3.39 µM (inactive)
KM-20L2
  GI50: 3.78 µM (inactive)

## COc1c(C)cc2c(c1O)C1NC(C2)[C@H](O)N2C3COC(=O)[C@@]4(CS[C@@H](c5c(OC(C)=O)c(C)c6c(c53)OCO6)C12)NCCC1=C4NC2C=CC=CC12 (some centres not stated)
RXF 631
  GI50: < 0.01 µM (active)
DMS-273
  GI50: < 0.01 µM (active)
XF498
  GI50: < 0.01 µM (active)
M19-MEL
  GI50: < 0.01 µM (active)
LXFL 529
  GI50: < 0.01 µM (active)
DMS-114
  GI50: < 0.01 µM (active)
KM-20L2
  GI50: < 0.01 µM (active)

## Cc1ccc(C)c(NC(=O)C(=O)C(C2C(C)CC(=O)C2CC(=O)O)[N+](=O)[O-])c1 (configuration not stated)
RXF 631
  GI50: > 100 µM (inactive)
XF498
  GI50: > 100 µM (inactive)
M19-MEL
  GI50: > 100 µM (inactive)
SNB-78
  GI50: > 100 µM (inactive)
LXFL 529
  GI50: > 100 µM (inactive)
DMS-114
  GI50: > 100 µM (inactive)
KM-20L2
  GI50: > 100 µM (inactive)

## CN(C)CCNC(=O)C1COc2cc(-c3cc(=O)c4ccccc4o3)ccc2O1 (configuration not stated)
DMS-273
  GI50: 18.5 µM (inactive)
HOP-18
  GI50: 24.4 µM (inactive)
M19-MEL
  GI50: > 100 µM (inactive)
SNB-78
  GI50: 24.7 µM (inactive)
KM-20L2
  GI50: 22 µM (inactive)

## C[N+](C)(C)Cc1c(CC#N)[nH]c2ccccc12
DMS-273
  GI50: > 100 µM (inactive)
XF498
  GI50: > 100 µM (inactive)
M19-MEL
  GI50: > 100 µM (inactive)
LXFL 529
  GI50: > 100 µM (inactive)
DMS-114
  GI50: > 100 µM (inactive)
KM-20L2
  GI50: > 100 µM (inactive)

## CC1CC2CC(=O)CC3(C1)C2CCCN3CCCO (configuration not stated)
RXF 631
  GI50: > 100 µM (inactive)
DMS-273
  GI50: > 100 µM (inactive)
HOP-18
  GI50: > 100 µM (inactive)
XF498
  GI50: > 100 µM (inactive)
M19-MEL
  GI50: > 100 µM (inactive)
SNB-78
  GI50: > 100 µM (inactive)
LXFL 529
  GI50: > 100 µM (inactive)
DMS-114
  GI50: > 100 µM (inactive)

## COC1OC(CO)C(O)C(O)C1Br (configuration not stated)
RXF 631
  GI50: > 100 µM (inactive)
DMS-273
  GI50: > 100 µM (inactive)
HOP-18
  GI50: > 100 µM (inactive)
XF498
  GI50: > 100 µM (inactive)
M19-MEL
  GI50: > 100 µM (inactive)
SNB-78
  GI50: > 100 µM (inactive)
LXFL 529
  GI50: > 100 µM (inactive)
KM-20L2
  GI50: > 100 µM (inactive)

## NC1=C(Br)C(=O)c2ncccc2C1=O
RXF 631
  GI50: 1.79 µM (inactive)
DMS-273
  GI50: 0.352 µM (active)
XF498
  GI50: 0.998 µM (active)
M19-MEL
  GI50: 0.159 µM (active)
SNB-78
  GI50: 0.828 µM (active)
LXFL 529
  GI50: 0.321 µM (active)
DMS-114
  GI50: 0.16 µM (active)
KM-20L2
  GI50: 1.86 µM (inactive)

## O=c1c2ccccc2c2c3c1cccc3c1cccc3c(=O)c4ccccc4c2c31
RXF 631
  GI50: > 100 µM (inactive)
DMS-273
  GI50: > 100 µM (inactive)
HOP-18
  GI50: > 100 µM (inactive)
M19-MEL
  GI50: > 100 µM (inactive)
SNB-78
  GI50: > 100 µM (inactive)
LXFL 529
  GI50: > 100 µM (inactive)
DMS-114
  GI50: > 100 µM (inactive)
KM-20L2
  GI50: > 100 µM (inactive)

## CC(=O)n1ccc2c(Cl)ncnc21
RXF 631
  GI50: > 100 µM (inactive)
DMS-273
  GI50: > 100 µM (inactive)
M19-MEL
  GI50: > 100 µM (inactive)
SNB-78
  GI50: > 100 µM (inactive)
LXFL 529
  GI50: > 100 µM (inactive)
DMS-114
  GI50: > 100 µM (inactive)
KM-20L2
  GI50: > 100 µM (inactive)

## C/C(CC(=O)N(C(C)C)C(C)C)=N\NC(=O)c1ccncc1
RXF 631
  GI50: > 100 µM (inactive)
DMS-273
  GI50: > 100 µM (inactive)
HOP-18
  GI50: > 100 µM (inactive)
XF498
  GI50: > 100 µM (inactive)
M19-MEL
  GI50: > 100 µM (inactive)
SNB-78
  GI50: > 100 µM (inactive)
LXFL 529
  GI50: > 100 µM (inactive)
KM-20L2
  GI50: > 100 µM (inactive)

## O=C1C2=C(c3ccccc31)C(c1ccc(F)cc1)N1C(=O)CCSC1=N2 (configuration not stated)
DMS-273
  GI50: > 100 µM (inactive)
XF498
  GI50: > 100 µM (inactive)
M19-MEL
  GI50: > 100 µM (inactive)
LXFL 529
  GI50: 45.4 µM (inactive)
DMS-114
  GI50: 71.6 µM (inactive)
KM-20L2
  GI50: > 100 µM (inactive)

## O=C(/C=C/c1c(O)ccc2ccccc12)c1ccc([N+](=O)[O-])cc1
DMS-273
  GI50: > 78.7 µM (inactive)
HOP-18
  GI50: 15.2 µM (inactive)
XF498
  GI50: 27.5 µM (inactive)
M19-MEL
  GI50: 18.5 µM (inactive)
SNB-78
  GI50: 21.6 µM (inactive)
LXFL 529
  GI50: 16.6 µM (inactive)
DMS-114
  GI50: 21.3 µM (inactive)
KM-20L2
  GI50: > 100 µM (inactive)

## CC[P+](C)(Cc1ccccc1)c1ccccc1.O=C(OC(C(=O)[O-])C(OC(=O)c1ccccc1)C(=O)O)c1ccccc1 (configuration not stated)
DMS-273
  GI50: > 100 µM (inactive)
HOP-18
  GI50: 5.47 µM (inactive)
XF498
  GI50: > 100 µM (inactive)
M19-MEL
  GI50: > 100 µM (inactive)
SNB-78
  GI50: > 100 µM (inactive)
KM-20L2
  GI50: > 100 µM (inactive)

## N/C(=N\O)N/N=C/c1ccc(C(F)(F)F)cc1
DMS-273
  GI50: 16.6 µM (inactive)
XF498
  GI50: 13.8 µM (inactive)
M19-MEL
  GI50: 35.2 µM (inactive)
SNB-78
  GI50: 39.4 µM (inactive)
LXFL 529
  GI50: 10.9 µM (inactive)
DMS-114
  GI50: 18.4 µM (inactive)

## Nc1nc(SCCNC(=O)CCc2ccc(O)cc2)nc2c1ncn2C1OC(CO)C(O)C1O (configuration not stated)
DMS-273
  GI50: > 203 µM (inactive)
HOP-18
  GI50: > 203 µM (inactive)
XF498
  GI50: > 203 µM (inactive)
M19-MEL
  GI50: > 203 µM (inactive)
SNB-78
  GI50: > 203 µM (inactive)
DMS-114
  GI50: > 203 µM (inactive)
KM-20L2
  GI50: > 203 µM (inactive)

## CC(C)CCCCCCCCCCCCC(=O)NCC(=O)NC1C(O)C(O)C(Nc2[nH]cnc3ncnc2-3)OC1C(O)CO (configuration not stated)
DMS-273
  GI50: 0.000133 µM (active)
HOP-18
  GI50: 0.000164 µM (active)
M19-MEL
  GI50: 0.000211 µM (active)
SNB-78
  GI50: 0.000148 µM (active)
DMS-114
  GI50: 0.000416 µM (active)
KM-20L2
  GI50: 0.000166 µM (active)

## O=Cc1cn(S(=O)(=O)c2ccccc2)c2ccccc12
RXF 631
  GI50: 53.7 µM (inactive)
HOP-18
  GI50: 32.4 µM (inactive)
XF498
  GI50: 46 µM (inactive)
M19-MEL
  GI50: 37.5 µM (inactive)
SNB-78
  GI50: 41.3 µM (inactive)
LXFL 529
  GI50: 36.4 µM (inactive)
DMS-114
  GI50: 24.8 µM (inactive)
KM-20L2
  GI50: > 100 µM (inactive)

## O=C(c1ccccc1)c1nc2c(Cl)ccc(Cl)c2cc1C(Br)Br
RXF 631
  GI50: 1.78 µM (inactive)
DMS-273
  GI50: 1.32 µM (inactive)
HOP-18
  GI50: 1.66 µM (inactive)
XF498
  GI50: 1.07 µM (active)
M19-MEL
  GI50: 1.83 µM (inactive)
SNB-78
  GI50: 2.06 µM (inactive)
LXFL 529
  GI50: 0.39 µM (active)
DMS-114
  GI50: 2.04 µM (inactive)
KM-20L2
  GI50: 1.04 µM (active)

## Cc1ccccc1C(=O)N1CCN(C(=O)c2ccccc2C)CC1
RXF 631
  GI50: > 100 µM (inactive)
DMS-273
  GI50: > 100 µM (inactive)
HOP-18
  GI50: > 100 µM (inactive)
XF498
  GI50: > 100 µM (inactive)
M19-MEL
  GI50: > 100 µM (inactive)
SNB-78
  GI50: > 100 µM (inactive)
LXFL 529
  GI50: > 100 µM (inactive)
KM-20L2
  GI50: > 100 µM (inactive)

## COc1cc2ccnc(C#N)c2cc1OCc1ccccc1
HOP-18
  GI50: > 100 µM (inactive)
XF498
  GI50: 53.6 µM (inactive)
SNB-78
  GI50: > 100 µM (inactive)
LXFL 529
  GI50: > 100 µM (inactive)
KM-20L2
  GI50: > 100 µM (inactive)

## Cc1ccc(S(=O)(=O)N2CCC2c2ccccc2)cc1 (configuration not stated)
DMS-273
  GI50: 91 µM (inactive)
HOP-18
  GI50: 80 µM (inactive)
XF498
  GI50: 74 µM (inactive)
M19-MEL
  GI50: > 100 µM (inactive)
SNB-78
  GI50: > 100 µM (inactive)
DMS-114
  GI50: 48.1 µM (inactive)
KM-20L2
  GI50: > 100 µM (inactive)

## COc1ccc(C2=NC(C)(C)CO2)cc1
DMS-273
  GI50: > 100 µM (inactive)
HOP-18
  GI50: > 100 µM (inactive)
XF498
  GI50: > 100 µM (inactive)
M19-MEL
  GI50: > 100 µM (inactive)
SNB-78
  GI50: > 100 µM (inactive)
DMS-114
  GI50: > 100 µM (inactive)
KM-20L2
  GI50: > 100 µM (inactive)

— ChEMBL document CHEMBL1201862, “PubChem BioAssay data set” (2004)
